Measured values taken from paper PMC11900394, “1-Pyrene Carboxylic Acid: An Internalization Enhancer for Short Oligoarginines” (International Journal of Molecular Sciences, 2025).
Like-named read-outs stand apart in the source and are kept apart here. Numbered stars: 1 amine (or outer) side, 2 acyl side, 3 side chain; on linkers, the order of the positions; unused ones are H or OH. Side chains are listed from the residue outwards. Peptide text beside a SMILES is read from it. * marks the point of attachment. Daunorubicin = COc1cccc2c1C(=O)c1c(O)c3c(c(O)c1C2=O)C[C@@](O)(C(C)=O)C[C@@H]3O[C@H]1C[C@H](N*)[C@H](O)[C@H](C)O1; 1Pyrenoyl = O=C(c1ccc2ccc3cccc4ccc1c2c34)*; Suc = O=C(CCC(=O)[*:2])[*:1]

What was measured:
MDA-MB-231 cells [1] = assay: Intracellular localization by confocal laser scanning microscopy; format: cell-based, human; conditions: MDA-MB-231, 5 μM, 15, 45 and 90 min; CLSM
MDA-MB-231 cells [2] = assay: In vitro cytostatic activity, Alamar-blue assay; format: cell-based, human; conditions: 3 h treatment, then 3 days in serum-containing medium, four parallels, two independent experiments, read-out: IC50 ± SD, cytostatic activity
Procedure: The in vitro measurements were carried out on 96-well plates containing 5 × 10^3 MDA-MB-231 cells per well. The cells were incubated for 24 h at 37 °C. The measurement started with treating these cells with the solutions of compounds for 3 h, where the final volume was 200 μL. The cytostatic activity was measured on a broad spectrum of concentrations between 0.000128 and 100 μM. Serum-free medium was used on cells for 3 h at 37 °C as control. After treatment, the compounds were washed out using a serum-free medium twice. The cells were then cultured for 72 h in a medium with serum. Alamar-blue (Resazurim) assay was used to determine the ratio of live cells and thus the IC50. Briefly, Alamar-blue solution (22.5 μL, 0.15 mg/mL in PBS (pH = 7)) was added to the cells. Synergy H4 multimode microplate reader (BioTek, Winooski, VT, USA) was used to determine the fluorescence (at λ = 530/30 nm and 610/10 nm) after 4 h incubation. Cytostasis was calculated as Cytostatic effect (%) = [1 − (ODtreated/ODcontrol)] × 100; where ODtreated and ODcontrol correspond to the optical densities of the treated and untreated cells, respectively. […] The curves were defined using MicrocalTM Origin (version 8.0, OriginLab, Northampton, MA, USA) software: cytostasis was plotted as a function of concentration, fitted to a sigmoidal curve, and the IC50 value was determined. […]

MDA-MB-231 cells [3] = conditions: ref [31], read-out: IC50, cytostatic activity; cited from earlier work
Excerpt: Table 2 The cytostatic activity of peptide-drug conjugates on MDA-MB-231. | column: IC50 ± SD (µM) * / MDA-MB-231

| Molecule | IC50 (MDA-MB-231 cells [2]) | also measured |
| --- | --- | --- |
| COc1cccc2c1C(=O)c1c(O)c3c(c(O)c1C2=O)C[C@@](O)(C(C)=O)C[C@@H]3O[C@H]1C[C@H](NC(=O)CCC(=O)NCCCC[C@H](NC(=O)[C@H](CCCNC(=N)N)NC(=O)[C@H](CCCNC(=N)N)NC(=O)[C@H](CCCNC(=N)N)NC(=O)[C@H](CCCNC(=N)N)NC(=O)[C@H](Cc2c[nH]c3ccccc23)NC(=O)c2ccc3ccc4cccc5ccc2c3c45)C(N)=O)[C@H](O)[C@H](C)O1 [PCA-Trp-Arg4-Lys(DauSuc)] (1Pyrenoyl-WRRRRK([Suc-Daunorubicin])-NH2) |  | Internalization of DauSuc conjugates (Dau fluorescence) (MDA-MB-231 cells [1]): very efficient internalization |
| COc1cccc2c1C(=O)c1c(O)c3c(c(O)c1C2=O)C[C@@](O)(C(C)=O)C[C@@H]3O[C@H]1C[C@H](NC(=O)CCC(=O)NCCCC[C@H](NC(=O)[C@H](CCCNC(=N)N)NC(=O)[C@H](CCCNC(=N)N)NC(=O)[C@H](CCCNC(=N)N)NC(=O)[C@H](CCCNC(=N)N)NC(=O)[C@H](CCCNC(=N)N)NC(=O)[C@H](CCCNC(=N)N)NC(=O)[C@H](CCCNC(=N)N)NC(=O)[C@H](CCCNC(=N)N)NC(=O)c2ccc3ccc4cccc5ccc2c3c45)C(N)=O)[C@H](O)[C@H](C)O1 [PCA-Arg8-Lys(DauSuc)] | 28.1 ± 7.5 µM |  |
| COc1cccc2c1C(=O)c1c(O)c3c(c(O)c1C2=O)C[C@@](O)(C(C)=O)C[C@@H]3O[C@H]1C[C@H](NC(=O)CCC(=O)N[C@@H](CCCNC(=N)N)C(=O)N[C@@H](CCCNC(=N)N)C(=O)N[C@@H](CCCNC(=N)N)C(=O)N[C@@H](CCCNC(=N)N)C(=O)N[C@@H](CCCNC(=N)N)C(=O)N[C@@H](CCCNC(=N)N)C(=O)N[C@@H](CCCNC(=N)N)C(=O)N[C@@H](CCCNC(=N)N)C(=O)N[C@@H](CCCCNC(=O)c2ccc3ccc4cccc5ccc2c3c45)C(N)=O)[C@H](O)[C@H](C)O1 [DauSuc-Arg8-Lys(PCA)] | 23.7 ± 4.3 µM |  |
| succinylated daunomycin [DauSuc] |  | IC50 (MDA-MB-231 cells [3]): > 100 µM |
